In PMC4266452, “Prediction of Thorough QT study results using action potential simulations based on ion channel screens” (Journal of Pharmacological and Toxicological Methods, 2014):
Where “and” joins values, the source holds several entries; their conditions need not be identical. Identical values can stand only once. Like-named read-outs stand apart in the source and are kept apart here.

Legend:
[1] = test system: QT interval on the body surface ECG; settings: cited from earlier work; for QT shortening in the TQT study: range over the three drugs
[2] = ref Gintant (2011); cited from earlier work
[3] = cited from earlier work
Kv4.3/KChIP2.2 = target: T1, Kv4.3/KChIP2.2 (Homo sapiens, UniProt Q9UK17); assay: IonWorks Quattro Kv4.3/KChIP2.2 screen (AstraZeneca, Q); format: cell-based; settings: IonWorks Quattro, −log10 of IC50 in Molar, Hill n = 1
T1 sequence (Q9UK17 1-655): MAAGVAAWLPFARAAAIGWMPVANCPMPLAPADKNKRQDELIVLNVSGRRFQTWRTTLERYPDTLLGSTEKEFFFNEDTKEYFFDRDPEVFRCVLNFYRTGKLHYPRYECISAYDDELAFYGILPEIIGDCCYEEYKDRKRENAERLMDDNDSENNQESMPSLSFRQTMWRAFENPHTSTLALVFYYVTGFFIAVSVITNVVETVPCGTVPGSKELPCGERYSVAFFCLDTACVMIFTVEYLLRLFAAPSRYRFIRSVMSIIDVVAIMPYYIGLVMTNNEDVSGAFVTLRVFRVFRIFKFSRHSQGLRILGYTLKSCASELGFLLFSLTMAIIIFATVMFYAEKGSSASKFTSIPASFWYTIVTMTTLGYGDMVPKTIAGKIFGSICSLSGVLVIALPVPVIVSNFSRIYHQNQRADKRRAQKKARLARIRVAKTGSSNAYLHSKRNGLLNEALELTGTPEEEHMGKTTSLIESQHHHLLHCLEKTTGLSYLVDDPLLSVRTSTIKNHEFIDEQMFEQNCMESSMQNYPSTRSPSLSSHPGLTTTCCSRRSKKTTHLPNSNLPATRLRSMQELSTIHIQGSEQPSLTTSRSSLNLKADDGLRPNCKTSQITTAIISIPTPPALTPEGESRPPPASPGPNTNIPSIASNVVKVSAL
T1 sequence (Q9NS61 1-270 partner): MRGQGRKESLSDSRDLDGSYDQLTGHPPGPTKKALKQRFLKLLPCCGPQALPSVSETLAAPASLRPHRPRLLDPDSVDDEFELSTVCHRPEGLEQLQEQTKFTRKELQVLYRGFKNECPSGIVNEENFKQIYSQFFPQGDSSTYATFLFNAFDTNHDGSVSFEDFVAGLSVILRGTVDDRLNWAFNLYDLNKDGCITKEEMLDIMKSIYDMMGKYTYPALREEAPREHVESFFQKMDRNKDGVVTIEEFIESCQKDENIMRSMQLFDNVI

[4] = Plasma concentration (Cmax) during the TQT study, total and calculated free; format: in vivo, human
KCNQ1/MinK = KCNQ1/MinK (Homo sapiens, UniProt P51787); assay: IonWorks Quattro KCNQ1/MinK screen (AstraZeneca, Q); settings: −log10 of IC50 in Molar, Hill n = 1, 0.0 = pIC50 ≤ 0 fitted
KCNQ1/MinK, sequence (P51787 whole entry): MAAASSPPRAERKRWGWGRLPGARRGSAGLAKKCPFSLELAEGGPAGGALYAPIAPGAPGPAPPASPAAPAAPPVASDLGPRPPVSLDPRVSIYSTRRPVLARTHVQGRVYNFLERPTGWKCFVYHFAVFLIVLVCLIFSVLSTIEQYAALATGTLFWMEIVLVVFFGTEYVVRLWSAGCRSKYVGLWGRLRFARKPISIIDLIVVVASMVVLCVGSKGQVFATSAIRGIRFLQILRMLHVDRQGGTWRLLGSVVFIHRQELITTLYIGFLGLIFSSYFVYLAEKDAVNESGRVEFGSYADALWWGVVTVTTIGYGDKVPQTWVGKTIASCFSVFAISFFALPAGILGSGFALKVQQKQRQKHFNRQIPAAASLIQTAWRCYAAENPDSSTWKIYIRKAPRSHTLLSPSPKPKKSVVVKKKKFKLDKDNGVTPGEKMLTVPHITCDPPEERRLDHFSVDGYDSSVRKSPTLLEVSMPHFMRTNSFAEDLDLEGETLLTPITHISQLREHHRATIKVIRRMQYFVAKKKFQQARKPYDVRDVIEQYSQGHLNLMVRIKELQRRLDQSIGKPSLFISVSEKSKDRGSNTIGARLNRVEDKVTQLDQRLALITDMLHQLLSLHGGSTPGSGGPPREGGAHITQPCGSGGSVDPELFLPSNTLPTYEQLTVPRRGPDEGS

NaV1.5 [5] = target: T2, NaV1.5 (Homo sapiens, UniProt Q14524); assay: IonWorks Quattro NaV1.5 screen (AstraZeneca, Q)
NaV1.5 [6] = target: T2, NaV1.5; assay: Second IonWorks Quattro NaV1.5 screen (GSK, Q2)
CaV1.2 = CaV1.2 (Homo sapiens, UniProt Q13936); assay: IonWorks Quattro CaV1.2 screen (AstraZeneca, Q)
CaV1.2, sequence (Q13936 whole entry): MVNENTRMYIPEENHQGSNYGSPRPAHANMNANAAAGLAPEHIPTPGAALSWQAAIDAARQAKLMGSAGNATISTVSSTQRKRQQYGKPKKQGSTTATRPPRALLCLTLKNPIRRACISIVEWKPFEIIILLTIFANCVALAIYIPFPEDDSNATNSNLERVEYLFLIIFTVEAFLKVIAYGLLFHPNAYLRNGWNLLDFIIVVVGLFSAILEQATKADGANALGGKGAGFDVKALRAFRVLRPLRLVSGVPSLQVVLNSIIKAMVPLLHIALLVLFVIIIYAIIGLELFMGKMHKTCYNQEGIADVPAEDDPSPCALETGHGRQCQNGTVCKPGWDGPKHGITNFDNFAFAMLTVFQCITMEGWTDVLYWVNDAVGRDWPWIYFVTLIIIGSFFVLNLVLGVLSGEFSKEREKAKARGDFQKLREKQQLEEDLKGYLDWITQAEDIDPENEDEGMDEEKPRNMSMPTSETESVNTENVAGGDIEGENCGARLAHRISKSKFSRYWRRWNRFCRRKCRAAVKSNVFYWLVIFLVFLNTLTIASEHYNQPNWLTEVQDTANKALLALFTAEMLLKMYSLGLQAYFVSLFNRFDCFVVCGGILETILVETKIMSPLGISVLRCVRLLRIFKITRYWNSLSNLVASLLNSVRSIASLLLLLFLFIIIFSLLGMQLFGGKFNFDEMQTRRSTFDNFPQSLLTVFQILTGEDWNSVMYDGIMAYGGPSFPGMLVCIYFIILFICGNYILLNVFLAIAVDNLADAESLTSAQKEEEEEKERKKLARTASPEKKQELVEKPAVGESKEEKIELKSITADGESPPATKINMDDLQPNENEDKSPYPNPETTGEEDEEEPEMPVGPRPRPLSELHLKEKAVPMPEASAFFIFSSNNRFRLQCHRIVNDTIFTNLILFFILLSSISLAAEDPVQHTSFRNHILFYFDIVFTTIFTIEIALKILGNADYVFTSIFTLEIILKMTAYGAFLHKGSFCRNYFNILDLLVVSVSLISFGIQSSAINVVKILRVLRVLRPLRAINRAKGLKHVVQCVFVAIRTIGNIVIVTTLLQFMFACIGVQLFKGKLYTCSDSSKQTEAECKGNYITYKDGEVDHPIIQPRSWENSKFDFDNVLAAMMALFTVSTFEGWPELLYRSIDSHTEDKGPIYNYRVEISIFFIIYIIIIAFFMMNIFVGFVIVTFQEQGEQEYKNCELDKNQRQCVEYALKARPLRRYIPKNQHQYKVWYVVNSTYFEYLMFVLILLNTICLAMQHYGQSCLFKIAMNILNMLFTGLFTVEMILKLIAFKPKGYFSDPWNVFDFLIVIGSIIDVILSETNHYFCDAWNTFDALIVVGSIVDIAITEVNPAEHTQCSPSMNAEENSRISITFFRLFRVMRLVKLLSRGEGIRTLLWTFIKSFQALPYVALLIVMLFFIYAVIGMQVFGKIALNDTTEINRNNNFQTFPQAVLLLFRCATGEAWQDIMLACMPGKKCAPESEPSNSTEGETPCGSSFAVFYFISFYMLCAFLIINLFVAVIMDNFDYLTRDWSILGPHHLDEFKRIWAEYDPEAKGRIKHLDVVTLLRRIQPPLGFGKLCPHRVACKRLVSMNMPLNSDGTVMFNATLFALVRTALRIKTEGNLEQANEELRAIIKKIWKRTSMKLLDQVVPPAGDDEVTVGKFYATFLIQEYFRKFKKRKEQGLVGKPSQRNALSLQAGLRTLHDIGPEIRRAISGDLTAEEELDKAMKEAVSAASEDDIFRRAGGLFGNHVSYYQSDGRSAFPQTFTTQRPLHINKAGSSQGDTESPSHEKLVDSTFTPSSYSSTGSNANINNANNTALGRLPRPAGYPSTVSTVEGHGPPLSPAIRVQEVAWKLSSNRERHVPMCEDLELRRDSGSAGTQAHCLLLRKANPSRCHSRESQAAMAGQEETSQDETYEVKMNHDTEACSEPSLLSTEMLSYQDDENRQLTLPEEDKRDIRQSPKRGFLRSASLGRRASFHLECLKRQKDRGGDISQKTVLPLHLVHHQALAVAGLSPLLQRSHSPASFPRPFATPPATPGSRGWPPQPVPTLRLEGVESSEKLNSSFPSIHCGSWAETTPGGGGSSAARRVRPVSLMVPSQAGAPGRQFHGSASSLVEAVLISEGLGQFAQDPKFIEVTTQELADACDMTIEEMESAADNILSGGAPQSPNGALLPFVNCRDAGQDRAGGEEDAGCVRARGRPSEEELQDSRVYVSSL
CaV1.2, sequence (Q08289 whole entry partner): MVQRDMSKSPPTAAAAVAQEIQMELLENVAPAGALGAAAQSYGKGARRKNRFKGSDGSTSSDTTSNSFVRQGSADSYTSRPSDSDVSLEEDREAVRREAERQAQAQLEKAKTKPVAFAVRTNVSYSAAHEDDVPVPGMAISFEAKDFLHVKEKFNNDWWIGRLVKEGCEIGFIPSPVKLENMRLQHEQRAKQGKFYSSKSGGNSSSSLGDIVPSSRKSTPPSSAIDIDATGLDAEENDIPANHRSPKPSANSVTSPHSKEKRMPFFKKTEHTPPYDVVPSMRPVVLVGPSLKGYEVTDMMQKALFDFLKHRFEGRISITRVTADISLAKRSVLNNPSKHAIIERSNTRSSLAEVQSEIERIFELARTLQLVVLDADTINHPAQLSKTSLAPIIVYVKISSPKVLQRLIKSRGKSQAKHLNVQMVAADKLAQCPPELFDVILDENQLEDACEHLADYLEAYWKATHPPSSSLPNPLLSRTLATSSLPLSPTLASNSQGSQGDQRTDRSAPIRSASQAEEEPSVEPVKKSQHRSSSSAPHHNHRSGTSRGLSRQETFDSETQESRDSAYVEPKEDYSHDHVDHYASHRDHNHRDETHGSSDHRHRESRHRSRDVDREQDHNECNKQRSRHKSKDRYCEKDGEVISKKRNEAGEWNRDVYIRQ
CaV1.2, sequence (P54289 25-956 partner limits assumed): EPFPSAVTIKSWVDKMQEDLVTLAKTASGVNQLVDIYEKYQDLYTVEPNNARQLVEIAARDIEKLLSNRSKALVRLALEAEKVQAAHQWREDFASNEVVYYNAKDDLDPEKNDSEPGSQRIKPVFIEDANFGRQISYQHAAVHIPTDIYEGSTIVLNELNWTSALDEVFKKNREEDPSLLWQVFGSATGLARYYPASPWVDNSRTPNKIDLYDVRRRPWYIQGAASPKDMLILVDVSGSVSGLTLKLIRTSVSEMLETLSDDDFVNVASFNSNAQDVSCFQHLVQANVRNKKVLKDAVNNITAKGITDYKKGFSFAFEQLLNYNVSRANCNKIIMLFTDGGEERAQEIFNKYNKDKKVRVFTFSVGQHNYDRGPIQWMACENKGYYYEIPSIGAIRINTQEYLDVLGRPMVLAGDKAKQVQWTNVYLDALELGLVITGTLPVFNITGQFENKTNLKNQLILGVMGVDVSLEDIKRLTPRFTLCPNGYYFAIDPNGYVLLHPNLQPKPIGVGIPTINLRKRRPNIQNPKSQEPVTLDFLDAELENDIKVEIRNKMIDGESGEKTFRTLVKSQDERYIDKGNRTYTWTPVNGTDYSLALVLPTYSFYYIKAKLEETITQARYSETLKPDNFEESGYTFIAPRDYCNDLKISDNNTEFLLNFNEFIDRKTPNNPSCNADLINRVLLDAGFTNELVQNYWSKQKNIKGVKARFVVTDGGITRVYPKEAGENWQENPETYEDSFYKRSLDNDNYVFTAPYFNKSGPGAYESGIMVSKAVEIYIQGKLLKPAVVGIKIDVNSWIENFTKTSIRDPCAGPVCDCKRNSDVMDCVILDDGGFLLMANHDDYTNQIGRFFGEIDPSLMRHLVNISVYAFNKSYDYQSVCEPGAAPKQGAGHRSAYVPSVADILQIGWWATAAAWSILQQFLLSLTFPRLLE
CaV1.2, sequence (P54289 957-1103 partner limits assumed): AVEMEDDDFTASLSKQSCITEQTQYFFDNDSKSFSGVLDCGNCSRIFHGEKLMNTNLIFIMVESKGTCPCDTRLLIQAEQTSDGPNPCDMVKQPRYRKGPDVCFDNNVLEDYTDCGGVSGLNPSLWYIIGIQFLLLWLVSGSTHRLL

[7] = 40 mg, ref FDA product label review
[8] = Cmax high, calculated from ng/mL and molecular weight
[9] = Cmax high, calculated with PPB and molecular weight
[10] = Cmax low, calculated from ng/mL and molecular weight
[11] = first (lower) of two lines, not labelled low/high
[12] = second (higher) of two lines, not labelled low/high
[13] = Cmax low, calculated with PPB and molecular weight
[14] = IonWorks Quattro, −log10 of IC50 in Molar, Hill n = 1, 0.0 = pIC50 ≤ 0 fitted

| SMILES | PPB (percent plasma binding) [2] | Cmax TOTAL ([3]; Cmax high, ref Gintant (2011)) [ng/mL] | Cmax TOTAL ([3]; Cmax low, ref Gintant (2011)) [ng/mL] | Kv4.3 pIC50 (Q) (Kv4.3/KChIP2.2; 0.0 = pIC50 ≤ 0 fitted) | Cmax FREE ([4]; Cmax high, calculated with PPB) [ng/mL] | Cmax FREE [4, 9] [nM] | Free plasma concentration ([4]; Cmax low) [nM] | Cmax FREE ([4]; Cmax low, calculated with PPB) [ng/mL] | Cmax FREE [4, 13] [nM] | also measured |
| --- | --- | --- | --- | --- | --- | --- | --- | --- | --- | --- |
| COCCCOc1cc(C[C@@H](C[C@H](N)[C@@H](O)C[C@H](C(=O)NCC(C)(C)C(N)=O)C(C)C)C(C)C)ccc1OC [ALISKIRIN] |  |  |  |  |  |  |  |  |  | relationship between exposure and QTc in words (COMMENTS) ([1]; ref Gintant (2011)): Lack of relationship between aliskirin exposure and QTcF |
| COc1cc2nc(N(C)CCCNC(=O)C3CCCO3)nc(N)c2cc1OC (stereo not shown) [Alfuzosin] | 90% ppb | 40.5 | 8 | 3.0 | 4.05 | 7.74 | 1.529 | 0.80 |  | QTc change, individual correction [1, 7]: 4.3 ms; QTc change, population correction [1, 7]: 4.2 ms; Free plasma concentration ([4]; Cmax high): 7.739 nM; Cmax TOTAL [4, 8]: 77.39 nM; Cmax TOTAL [4, 10]: 15.29 nM; estimated TQT concentration (free plasma) ([4]; largest dose in the TQT study): < 10^–2 μM; KCNQ1 pIC50 (Q) (KCNQ1/MinK): 3.9 |
| NC(=O)C(c1ccccc1)(c1ccccc1)[C@@H]1CCN(CCc2ccc3c(c2)CCO3)C1 [Darifenacin] | 98% PPB |  |  | 4.9 |  |  |  |  |  | Cmax TOTAL ([3]; first (lower) of two lines, not labelled low/high, ref Gintant (2011)): 5.6 ng/mL; Cmax TOTAL ([3]; second (higher) of two lines, not labelled low/high, ref Gintant (2011)): 63.3 ng/mL; QT shortening in the TQT study ([1]; ref Gintant (2011)): 2 to 7 ms; Cmax FREE [4, 11]: 0.112 ng/mL and 0.2207 nM; Cmax TOTAL [4, 11]: 11.0345 nM; Free plasma concentration [4, 11]: 0.2207 nM; Cmax FREE [4, 12]: 1.266 ng/mL and 2.495 nM; Cmax TOTAL [4, 12]: 124.729 nM; Free plasma concentration [4, 12]: 2.495 nM |
| Cc1nc(Nc2ncc(C(=O)Nc3c(C)cccc3Cl)s2)cc(N2CCN(CCO)CC2)n1.O [Dasatinib] | 96% PPB | 263 | 100 |  | 10.52 | 20.790 | 7.905 | 4 | 7.905 | Kv4.3 pIC50 (Q) (Kv4.3/KChIP2.2; […]): 3.5; Free plasma concentration ([4]; Cmax high): 20.79 nM; Cmax TOTAL [4, 8]: 519.742 nM; Cmax TOTAL [4, 10]: 197.621 nM |
| O=C(O)c1ccc(-n2nc(-c3ccccc3O)nc2-c2ccccc2O)cc1 [Deferasirox] | 99.5% |  |  |  |  |  |  |  |  | NaV1.5 pIC50 (Q) (NaV1.5 [5]; [14]): 4.1; NaV1.5 pIC50 (Q2) (NaV1.5 [6]; second independent Quattro screening, −log10 of IC50 in Molar, 0.0 = pIC50 ≤ 0 fitted): 3.3; CaV1.2 pIC50 (Q) (CaV1.2; [14]): 3.0; Cmax TOTAL ([3]; Cmax TQT, 40mg/kg, comes from docs, ref Gintant (2011)): 199 comes from docs for Cmax uM; Cmax FREE ([4]; Cmax 40mg/kg): 995 nM; Cmax TOTAL ([4]; Cmax 40mg/kg): 199000 nM; Free plasma concentration ([4]; Cmax 40mg/kg): 995 nM |
| CN(CCOc1ccc(NS(C)(=O)=O)cc1)CCc1ccc(NS(C)(=O)=O)cc1 [Dofetilide] |  |  |  |  |  |  |  |  |  | total plasma conc ([3]; ref Gintant (2011)): 9.5 nM; plasma concentration ([4]; end of the line in nM): 9.5 nM; plasma concentration ([4]; end of the line in ng/mL): 4.195 nM; therapeutic range, lower value ([4]; line in ng/mL): 0.1766 ng/mL; therapeutic range, upper value ([4]; line in ng/mL): 0.8832 ng/mL; total plasma conc ([4]; line in ng/mL): 4.1952 ng/mL |
| C[C@@H](O)[C@H]1C(=O)N2C(C(=O)O)=C(S[C@@H]3CN[C@H](CNS(N)(=O)=O)C3)[C@H](C)[C@H]12 [Doripenem] | 8.1% PPB | 45000 | 21000 |  | 41355 | 98346.2 | 45894.9 | 19299 | 45894.9 | CaV1.2 pIC50 (Q) (CaV1.2): 5.7; Free plasma concentration ([4]; Cmax high): 98346.2 nM |
| Cc1cc(C#N)cc(C)c1Oc1nc(Nc2ccc(C#N)cc2)nc(N)c1Br [Etravirine] | 99.9% PPB | 1322 | 921 | 2.5 | 1.322 | 3.037 |  | 0.921 | 2.116 | mean Cmax ([3]; supratherapeutic / highest dose of the TQT study, ref Gintant (2011)): 1378 ng/mL; QTc change (QTcF) ([1]; TQT study, highest dose, ref Gintant (2011)): -5.70 ms; QT shortening in the TQT study ([1]; ref Gintant (2011)): 2 to 7 ms; TQT study outcome in words (COMMENTS) ([1]; ref Gintant (2011)): QT shortening; KCNQ1 pIC50 (Q) (KCNQ1/MinK): 2.9 |
| CO[C@H]1C[C@@H]2CC[C@@H](C)[C@@](O)(O2)C(=O)C(=O)N2CCCC[C@H]2C(=O)O[C@H]([C@H](C)C[C@@H]2CC[C@@H](OCCO)[C@H](OC)C2)CC(=O)[C@H](C)/C=C(\C)[C@@H](O)[C@@H](OC)C(=O)[C@H](C)C[C@H](C)/C=C/C=C/C=C/1C [Everolimus] | 74% |  |  | 2.0 |  |  |  |  |  | NaV1.5 pIC50 (Q) (NaV1.5 [5]): 3.2; NaV1.5 pIC50 (Q2) (NaV1.5 [6]): 3.7; Cmax TOTAL ([3]; Cmax 50mg/kg, ref http://journals.lww.com/jto/pages/articleviewer.aspx?year=2011&issue=12000&article=00023&type=abstract Table 6): 251 ng/mL; Cmax FREE ([4]; Cmax 50mg/kg): 65.26 ng/mL; Cmax TOTAL ([4]; Cmax 50mg/kg): 261.943 nM; KCNQ1 pIC50 (Q) (KCNQ1/MinK): 4.0 |
| COc1c(N2C[C@@H]3CCCN[C@@H]3C2)c(F)cc2c(=O)c(C(=O)O)cn(C3CC3)c12 [Moxifloxacin] | 55% PPB |  | 2793.4 |  |  |  | 2745 | 1257.030 |  |  |
| Cc1cn(-c2cc(NC(=O)c3ccc(C)c(Nc4nccc(-c5cccnc5)n4)c3)cc(C(F)(F)F)c2)cn1 [Nilotinib] | 98% PPB |  | […] |  |  |  | 83.86 | 45.200 | 83.861 | NaV1.5 pIC50 (Q) (NaV1.5 [5]): 3.0; NaV1.5 pIC50 (Q2) (NaV1.5 [6]): […]; Cmax TOTAL [4, 10]: 4193.028 nM |
| O=C1c2cccc3c2[C@H](CCC3)CN1[C@@H]1CN2CCC1CC2 [Palonosetron] | 62% | 5.6 | 2.549 |  | 2.128 | 6.393 | 2.91 | 0.9686 | 2.910 | TQT study outcome in words (COMMENTS) ([1]; ref Gintant (2011)): Product labeling: no significant effect on any ECG interval; Free plasma concentration ([4]; Cmax high): 6.393 nM; Cmax TOTAL [4, 8]: 16.823 nM; Cmax TOTAL [4, 10]: 7.658 nM |
| CCCc1nn(C)c2c(=O)[nH]c(-c3cc(S(=O)(=O)N4CCN(C)CC4)ccc3OCC)nc12 [Sildenafil] | 96% |  |  | 3.3 | 60.76 | 128.024 |  | 7.12 | 15.0021 | NaV1.5 pIC50 (Q) (NaV1.5 [5]): 3.3; NaV1.5 pIC50 (Q2) (NaV1.5 [6]): 2.9 |
| N[C@@H](CC(=O)N1CCn2c(nnc2C(F)(F)F)C1)Cc1cc(F)c(F)cc1F [Sitagliptin] | 30% PPB | 5468 | 498 |  | 3827.6 | 9397.17 |  | 348.6 | 855.851 | NaV1.5 pIC50 (Q) (NaV1.5 [5]): 3.1; NaV1.5 pIC50 (Q2) (NaV1.5 [6]): 3.2; CaV1.2 pIC50 (Q) (CaV1.2; [14]): 1.0; TQT study outcome in words (COMMENTS) ([1]; ref Gintant (2011)): Minimal effects at supratherapeutic concentrations; KCNQ1 pIC50 (Q) (KCNQ1/MinK): 3.5 |
| O=C(O[C@H]1CN2CCC1CC2)N1CCc2ccccc2[C@@H]1c1ccccc1 [Solifenacin] | 98% PPB |  |  |  |  |  |  |  |  |  |
| CC[C@@H](c1cccc(O)c1)[C@@H](C)CN(C)C [TAPENTADOL] |  |  |  |  |  |  |  |  |  | TQT study outcome in words (COMMENTS) ([1]; ref Gintant (2011)): 90% Confidence interval; study considered negative |
